Results reported in patent publication US20240059915A1, “COLOR-CHANGE INK” (Société BIC, priority 2020, published 2024).

Assay: Solubility of Acid Blue 93 in several solvents
Type: physicochemical
Description: The solubility of Acid Blue 93, a water-soluble pH-sensitive triarylmethane dye, was determined by stirring 5 wt.-%0 of the dye in 95 wt.-%0 of the solvent. The following results reported in below Table 1 were obtained:
This is surprising since these water-soluble dyes are commonly known to be insoluble in organic solvents, as also seen in the above comparative solvents. In these comparative solvents, it can be observed that the solvent is not colored and that the dye remains in the form of particles and precipitates at the bottom of the recipient.

## O=S(=O)([O-])c1ccc(N=C2C=CC(=C(c3ccc(Nc4ccc(S(=O)(=O)[O-])cc4)cc3)c3ccc(Nc4ccc(S(=O)(=O)O)cc4)cc3)C=C2)cc1.[Na+].[Na+] [Acid Blue 93]
5 wt.-% dye stirred in 95 wt.-% 1,2-propanediol
  Solubility: Soluble
5 wt.-% dye stirred in 95 wt.-% 1-phenoxy-2-propanol
  Solubility: Insoluble
5 wt.-% dye stirred in 95 wt.-% 1-phenoxy-ethanol
  Solubility: Insoluble
5 wt.-% dye stirred in 95 wt.-% Carbitol (CAS 111-90-0)
  Solubility: Insoluble
5 wt.-% dye stirred in 95 wt.-% benzylic alcohol
  Solubility: Insoluble
5 wt.-% dye stirred in 95 wt.-% cyrene
  Solubility: Insoluble
5 wt.-% dye stirred in 95 wt.-% diethyleneglycol
  Solubility: Soluble
5 wt.-% dye stirred in 95 wt.-% dimethylsulfoxide
  Solubility: Soluble
5 wt.-% dye stirred in 95 wt.-% dipropylene glycol
  Solubility: Insoluble
5 wt.-% dye stirred in 95 wt.-% monoethyleneglycol
  Solubility: Soluble
